Legend:
[1] = Molar enthalpy of transition or fusion; settings: Crystal; Resistive pulse heating
[2] = 101.33 kPa, Resistive pulse heating

[V] [vanadium]
Settings	Molar enthalpy of transition or fusion [kcal/mol]
[1]	4.94

thermal conductivity [W/m/K], [2]
Settings	Crystal	Liquid
2199 K	41.35	39.08
2250 K	–	39.8
2300 K	–	40.49
2350 K	–	41.17
2400 K	–	41.82
2450 K	–	42.46
2500 K	–	43.08
2550 K	–	43.68
2600 K	–	44.26
2650 K	–	44.83
2700 K	–	45.37
2750 K	–	45.91
2800 K	–	46.42
2850 K	–	46.91
2900 K	–	47.39

— the NIST ThermoML archive (doi:10.1016/j.tca.2006.12.010)
